The text below walks through data of patent US20100221241A1, “C[…] ENVELOPE-BASED IMMUNOGEN THAT SIMU[…] RECEPTOR AND […] SITES” (UNIVERSITY OF MARYLAND BIOTECHNOLOGY INSTITUTE, priority 2005, published 2010).

The subject of assay [1] is trimers (soluble gp120 trimer). The assay can be described thus: Surface Plasmon Resonance binding to trimers. As to conditions: compared with monomeric CD4M9. On the set-up: species or system HIV. The text has this: Recently, the X-ray crystal structure of free gp120 was solved (1) and along with X-ray tomography images of envelope spikes (3), used to build a computational model of the envelope trimer (1). […] The line between the binding sites is a “ruler” divided into 1 nm units, which was used to estimate distances between binding sites.

For assay [2], the system named is HIV. As to conditions: compared with monomeric CD4M9; used with surface HIV virion; cited from earlier work.

No end group written: not given here.

Take “bi-CD4M9-MS: bivalent polypeptide containing two CD4M9 moieties separated by polyethylene glycol linker placing the binding residues 5.2 nm apart (CNLATCQLTCKSLGLLGKCAGSFCACGP; cysteine pairing not given here; also: bivalent: two CD4M9 moieties joined by a polyethylene glycol linker)”: the “forward rate constant for binding” value in assay [1] is reported as “significantly different from monomeric CD4M9”. For the same substance, in assay [2], the HIV inhibition entry is listed as “more potent HIV inhibition than monomeric CD4M9”.
